The values below come from patent publication US8865623B2, “Herbicidally active cyclic diones and derivatives thereof, processes for their preparation, compositions, and method of controlling weeds” (Syngenta Limited, priority 2009, dated 2014).

SMILES strings stand for the structures.

Holding throughout (assay type): in vivo
Assay [1] deals with Alopecurus myosuroides (ALOMY). Description: Pre-emergence herbicidal activity, glasshouse pot test. To be noted: Alopecurus myosuroides, 312 h; Rate 250 g/ha; pre-emergence spray; evaluated after 13 days; read-out: Pre-emergence activity ALOMY (100=total damage to plant; 0=no damage to plant). The method, then:
(§1) Seeds of a variety of test species were sown in standard soil in pots. After cultivation for one day (pre-emergence) or after 8 days cultivation (post-emergence) under controlled conditions in a glasshouse (at 24/16° C., day/night; 14 hours light; 65% humidity), the plants were sprayed with an aqueous spray solution derived from the formulation of the technical active ingredient in acetone/water (50:50) solution containing 0.5% Tween 20 (polyoxyethelyene sorbitan monolaurate, CAS RN 9005-64-5). The test plants were then grown in a glasshouse under controlled conditions in a glasshouse (at 24/16° C., day/night; 14 hours light; 65% humidity) and watered twice daily. After 13 days for pre and post-emergence, the test was evaluated (100=total damage to plant; 0=no damage to plant).
(§2) Lolium perenne (LOLPE), Alopecurus myosuroides (ALOMY), Echinochloa crus-galli (ECHCG), and Avena fatua (AVEFA).

The test system of assay [2] is Avena fatua (AVEFA). Described as above. To be noted: Avena fatua, 312 h; Rate 250 g/ha; pre-emergence spray; evaluated after 13 days; read-out: Pre-emergence activity AVEFA (100=total damage to plant; 0=no damage to plant). The method, then:
as §1, §2

In assay [3] the test system is Echinochloa crus-galli (ECHCG). Described as above. To be noted: Echinochloa crus-galli, 312 h; Rate 250 g/ha; pre-emergence spray; evaluated after 13 days; read-out: Pre-emergence activity ECHCG (100=total damage to plant; 0=no damage to plant). The method, then: as §1, §2
Assay [4] deals with Lolium perenne (LOLPE). The description is as above. To be noted: Lolium perenne, 312 h; Rate 250 g/ha; pre-emergence spray; evaluated after 13 days; read-out: Pre-emergence activity LOLPE (100=total damage to plant; 0=no damage to plant). On the procedure:
as §1, §2

The subject of assay [5] is Alopecurus myosuroides (ALOMY). Description: Post-emergence herbicidal activity, glasshouse pot test. To be noted: Alopecurus myosuroides, 312 h, rate 250 g/ha, evaluated after 13 days, glasshouse, read-out: Post-emergence activity ALOMY (100=total damage to plant; 0=no damage to plant). The method, then:
as §1, §2

The test system of assay [6] is Avena fatua (AVEFA). The assay is described as above. To be noted: Avena fatua, 312 h, rate 250 g/ha, evaluated after 13 days, glasshouse, read-out: Post-emergence activity AVEFA (100=total damage to plant; 0=no damage to plant). The method, then:
as §1, §2

In assay [7] the test system is Echinochloa crus-galli (ECHCG). The description is as above. To be noted: Echinochloa crus-galli, 312 h, rate 250 g/ha, evaluated after 13 days, glasshouse, read-out: Post-emergence activity ECHCG (100=total damage to plant; 0=no damage to plant). On the procedure: as §1, §2
Assay [8] relates to Lolium perenne (LOLPE). The description is as above. To be noted: Lolium perenne, 312 h, rate 250 g/ha, evaluated after 13 days, glasshouse, read-out: Post-emergence activity LOLPE (100=total damage to plant; 0=no damage to plant). On the procedure:
as §1, §2

As for `CCc1ccc(Oc2c(Cl)cc(C(F)(F)F)cc2Cl)cc1C1=C(O)C(C)(C)OC(C)(C)C1=O` [Example A-204], the pest or weed control at 250 g/ha in assay [1] worked out at 0%; with Avena fatua (AVEFA) [2], 0%; in assay [3], 20%; with Lolium perenne (LOLPE) [4], 10%; in assay [5], 60%; in the assay on Avena fatua (AVEFA) [6] it was 50%. The pest or weed control at 250 g/ha in assay [7] stood at 70%; with Lolium perenne (LOLPE) [8], 40%.
As for `CCc1ccc(Oc2ccc(Cl)c(F)c2)cc1C1=C(O)CC(C)(C)CC1=O` [Example A-46], the pest or weed control at 250 g/ha in assay [1] was 100%; in the assay on Avena fatua (AVEFA) [2], 30%; in assay [3], 90%; in the assay on Lolium perenne (LOLPE) [4], 70%; in assay [5] it was 80%; in the assay on Avena fatua (AVEFA) [6], 50%. For the same compound, the pest or weed control at 250 g/ha came out at 100% in assay [7] and 60% with Lolium perenne (LOLPE) [8].
For the compound `CCc1ccc(Oc2ncc(Br)cn2)cc1C1=C(O)CC2(CCOCC2)CC1=O` [Example A-310], the pest or weed control at 250 g/ha in assay [1] amounted to 100%; in the assay on Avena fatua (AVEFA) [2], 50%; in assay [3], 100%; with Lolium perenne (LOLPE) [4], 70%; in assay [5] it was 100%; in the assay with Avena fatua (AVEFA) [6], 80%. Also, the values for the pest or weed control at 250 g/ha (in assay [7]; in the assay on Lolium perenne (LOLPE) [8]) were 100% and 90%, respectively.
With `CCc1ccc(Oc2cnc3ccccc3n2)cc1C1=C(O)CC2(CCOCC2)CC1=O` [Example A-307], the pest or weed control at 250 g/ha in assay [1] worked out at 100%; in the assay with Avena fatua (AVEFA) [2], 70%; in assay [3], 100%; in the assay on Lolium perenne (LOLPE) [4], 90%; in assay [5], 100%; with Avena fatua (AVEFA) [6] it was 100%. The pest or weed control at 250 g/ha (in assay [7]; with Lolium perenne (LOLPE) [8]) was 100% in each case.
For `CCc1ccc(Oc2nc3ccccc3s2)cc1C1=C(O)[C@H]2CC[C@H](C2)C1=O` [Example A-337], the pest or weed control at 250 g/ha in assay [1] is 90%; in the assay on Avena fatua (AVEFA) [2], 70%; in assay [3], 100%; in the assay on Lolium perenne (LOLPE) [4], 100%; in assay [5], 90%; in the assay with Avena fatua (AVEFA) [6], 90%. Also, the pest or weed control at 250 g/ha in assay [7] was 100%; in the assay on Lolium perenne (LOLPE) [8] it was 90%.
For `CCc1ccc(Oc2ccc(C(F)(F)F)c(C#N)c2)cc1C1=C(O)[C@H]2CC[C@H](C2)C1=O` [Example A-340], the pest or weed control at 250 g/ha amounted to 80% in assay [1]; 50% in the assay on Avena fatua (AVEFA) [2]; 100% in assay [3]; 70% in the assay with Lolium perenne (LOLPE) [4]; 60% in assay [5]; 80% in the assay on Avena fatua (AVEFA) [6]. In addition, the pest or weed control at 250 g/ha in assay [7] is 100%; in the assay on Lolium perenne (LOLPE) [8], 70%.
Turning to `CCc1ccc(Oc2cc(C)ccn2)cc1C1=C(O)C(C)(C)OC(C)(C)C1=O` [Example A-64], the pest or weed control at 250 g/ha in assay [1] worked out at 60%; in the assay on Avena fatua (AVEFA) [2], 0%; in assay [3], 20%; in the assay with Lolium perenne (LOLPE) [4], 80%; in assay [5], 40%; with Avena fatua (AVEFA) [6], 0%. The pest or weed control at 250 g/ha is 30% in assay [7] and 40% in the assay on Lolium perenne (LOLPE) [8].
For the compound `CCc1ccc(Oc2ccc(F)cc2[N+](=O)[O-])cc1C1=C(O)C(C)(C)OC(C)(C)C1=O` [Example A-230], the pest or weed control at 250 g/ha in assay [1] amounted to 0%; in the assay with Avena fatua (AVEFA) [2] it was 0%; in assay [3], 20%; in the assay on Lolium perenne (LOLPE) [4] it was 0%; in assay [5], 20%; in the assay with Avena fatua (AVEFA) [6], 60%. Further, the pest or weed control at 250 g/ha in assay [7] stood at 80%; in the assay with Lolium perenne (LOLPE) [8], 40%.
Turning to `CCc1ccc(Oc2ccc(F)cc2Cl)cc1C1=C(O)CCCC1=O` [Example A-39], the pest or weed control at 250 g/ha in assay [1] amounted to 30%; in the assay on Avena fatua (AVEFA) [2], 0%; in assay [3], 40%; in the assay with Lolium perenne (LOLPE) [4], 30%; in assay [5], 30%; with Avena fatua (AVEFA) [6], 0%. The pest or weed control at 250 g/ha in assay [7] is 70%; in the assay with Lolium perenne (LOLPE) [8], 30%.
With `CCc1ccc(Oc2cnc3ccc(Br)cc3n2)cc1C1=C(O)CC(C)(C)CC1=O` [Example A-289], the pest or weed control at 250 g/ha was 60% in assay [1]; 40% in the assay with Avena fatua (AVEFA) [2]; 100% in assay [3]; 90% in the assay on Lolium perenne (LOLPE) [4]; 100% in assay [5]; 100% in the assay on Avena fatua (AVEFA) [6]. Further, the pest or weed control at 250 g/ha (in assay [7]; in the assay on Lolium perenne (LOLPE) [8]) was 100% throughout.
Take `CCc1ccc(Oc2ccc(Br)cc2C)cc1C1=C(O)C(C)(C)OC(C)(C)C1=O` [Example A-12]: the pest or weed control at 250 g/ha came out at 0% in assay [1]; 0% in the assay on Avena fatua (AVEFA) [2]; 0% in assay [3]; 0% with Lolium perenne (LOLPE) [4]; 20% in assay [5]; 0% with Avena fatua (AVEFA) [6]. The pest or weed control at 250 g/ha worked out at 70% in assay [7] and 50% with Lolium perenne (LOLPE) [8].
On to `CCc1ccc(Oc2nc3ccccc3s2)cc1C1=C(O)C(C)(C)OC(C)(C)C1=O` [Example A-105], for which the pest or weed control at 250 g/ha in assay [1] was 70%; in the assay on Avena fatua (AVEFA) [2] it was 10%; in assay [3], 100%; with Lolium perenne (LOLPE) [4], 100%; in assay [5], 90%; in the assay with Avena fatua (AVEFA) [6] it was 10%. The pest or weed control at 250 g/ha (in assay [7]; in the assay on Lolium perenne (LOLPE) [8]) was 90% in each case.
In the case of `CCc1ccc(Oc2cnc3cc(Cl)ccc3n2)cc1C1=C(O)[C@H]2CC[C@H](C2)C1=O` [Example A-255], the pest or weed control at 250 g/ha (in assay [1]; in the assay on Avena fatua (AVEFA) [2]; in assay [3]; in the assay on Lolium perenne (LOLPE) [4]; in assay [5]; in the assay on Avena fatua (AVEFA) [6]) was 100% throughout. The pest or weed control at 250 g/ha (in assay [7]; in the assay on Lolium perenne (LOLPE) [8]) was 100% throughout.
On to `CCc1ccc(Oc2ccc([N+](=O)[O-])c(Cl)c2)cc1C1=C(O)[C@H]2CC[C@H](C2)C1=O` [Example A-333], for which the pest or weed control at 250 g/ha in assay [1] was 50%; with Avena fatua (AVEFA) [2], 40%; in assay [3], 100%; in the assay with Lolium perenne (LOLPE) [4], 90%; in assay [5], 60%; in the assay with Avena fatua (AVEFA) [6], 70%. Moreover, the pest or weed control at 250 g/ha in assay [7] is 100%; in the assay on Lolium perenne (LOLPE) [8], 60%.
Take `CCc1ccc(Oc2nc3ccccc3s2)cc1C1=C(O)[C@@H]2CC[C@](C)(C1=O)C2(C)C` [Example A-319]: the pest or weed control at 250 g/ha in assay [1] came to 90%; in the assay with Avena fatua (AVEFA) [2] it was 70%; in assay [3] it was 100%; in the assay on Lolium perenne (LOLPE) [4], 100%; in assay [5], 100%; in the assay with Avena fatua (AVEFA) [6] it was 100%. For the same compound, the pest or weed control at 250 g/ha (in assay [7]; with Lolium perenne (LOLPE) [8]) was 100% in each case.
As for `CCc1ccc(Oc2ccc(C(F)(F)F)cn2)cc1C1=C(O)CC2(CCOCC2)CC1=O` [Example A-267], the pest or weed control at 250 g/ha (in assay [1]; in the assay on Avena fatua (AVEFA) [2]; in assay [3]; with Lolium perenne (LOLPE) [4]; in assay [5]; with Avena fatua (AVEFA) [6]) was 100% in each case. The pest or weed control at 250 g/ha (in assay [7]; with Lolium perenne (LOLPE) [8]) was 100% in each case.
